Laboratory results: ChEMBL document CHEMBL1155680, “A new bioactive triene aldehyde from the marine sponge Leucetta microraphis” (J Nat Prod, 2000)
Activity calls are given as the source filed them. The calls are words filed in the database; no cut-off is given here.

Tested on: HeLa
Assay: Growth inhibition of human HeLa S3 cells at 10 ug/ml after 72 hrs by crystal violet assay
Format: functional, cell-based

CCCCCCCCCC/C=C\C/C=C\CC/C=C(\C)C=O
Activity: Active
